Assay results taken from patent US8889840B2, “Vascular leakage inhibitor” (Industry-Academic Cooperation Foundation, Yonsei University, priority 2009, dated 2014).
Entries after “also recorded” stand apart in the source; their conditions may differ.

Experiments:
[1] = test system: diabetic mouse (DM) model; assay: Retinal vascular permeability in diabetic mouse (DM) model, FITC-dextran; type: in vivo, C57/BL6 mouse; conditions: streptozotocin diabetic mouse, 10 μg into the vitreous body, 24 hours
Method: 10 μg of Sac0601 or 10 μg of Sac0504 was injected into the vitreous body of one eye of a diabetic mouse. 24 hours after the injection, 100 μL of FITC-dextran (30 mg/mL in filtered […]) was injected into the left ventricle. Then, the retina was observed under an optical microscope (FIG. 11a) and the fluorescence intensity was quantified (FIG. 11b).
For in vivo analysis of the effect of the synthesized Rk1 derivatives on increased vascular permeability in diabetic retinopathy, a diabetic mouse (DM) model was made by injecting streptozotocin to C57/BL6 mouse. Sac 0601 or Sac 0504 (10 μg) was injected into the vitreous body of the mouse. 24 hours later, 40-kDa FITC-dextran (30 mg/mL in PBS, Sigma) was injected into the left ventricle. After waiting for about 2 minutes for circulation of the tracer, the eyes were taken out and fixed immediately in 4% PFA. Then, the retina was taken out and observed under an optical microscope.

HRECs [2] = assay: DNA fragmentation in serum-depleted HRECs; type: cell-based, human; conditions: serum-free medium, 0.1-10 μg/mL, 48 hours
Method: HRECs (3×10^4 cells/well) were seeded on a 24-well plate in M199 medium containing 20% fetal bovine serum. The next day, the cells were transferred to a medium containing 0.1-10 μg/mL Sac0601 (FIG. 6a) or 0.1-10 μg/mL Sac0504 (FIG. 6b). DNA fragmentation was analyzed by TUNEL assay 48 hours later.
In addition, chromosomal fragmentation and nicking characteristic of apoptosis were monitored, HRECs (3×10^4 cells/well) were seeded on a 24-well plate in M199 medium (1 mL) containing 20% fetal bovine serum, Next day, the cells were transferred to serum-free M199 medium containing 0.1-10 μg/mL Sac0601 (FIG. 6a) or 0.1-10 μg/mL Sac0504 (FIG. 6b). 48 hours later, the cells were washed twice with PBS, fixed with 2% paraformaldehyde, and washed twice with PBS again, After adding 4′,6-diamidino-2-phenylindole-2HCl (DAPI; Calbiochem, USA) solution and reacting for 30 minutes in the dark, the cells were washed twice with PBS and degree of DNA fragmentation was observed under an optical microscope after covering with a cover glass.

HRECs [3] = assay: Restoration of TJ instability and cytoskeleton change induced by VEGF in HRECs; type: cell-based, human; conditions: 20 ng/mL VEGF 1 hour, then 10 μg/mL 1 hour
Method: In FIGS. 9a-9b, confluent HRECs were stimulated with 20 ng/mL VEGF (1 hr) before treating with Sac0504 and Sac0601. The cells were then stained with anti-occludin antibody (FIG. 9a) and rhodamine phalloidin (FIG. 9b).
Confluent HRECs were treated with 20 ng/mL. VEGF for 1 hour and then with 10 μg/mL Sac0601 or Sac0504 for 1 hour. Subsequently, the cells were stained with anti-occludin antibody (FIG. 9a) or […] (FIG. 9b) as described above.

[4] = test system: human umbilical vein endothelial cells (HUVECs); assay: Serum depletion-induced apoptosis of HUVECs, MTT assay and cell morphology; type: cell-based; conditions: serum-free medium, 5 or 10 μg/mL, 24 and 48 hours
Method: FIGS. 1a-1b and FIGS. 2a-2d show the result of screening Rk1 analogs that protect human umbilical vein endothelial cells (HUVECs) from serum depletion-induced apoptosis. HUVECs (3×10^5 cells/well) were seeded on a 24-well plate in M199 medium containing 20% fetal bovine serum. The next day, the cells were transferred to a medium containing 5 μg/mL (FIG. 1a) or 10 μg/mL (FIG. 1b) of the synthesized compound. Cell viability was determined by MIT assay 24 hours and 48 hours later. FIGS. 2a-2d show the result of observing cell morphologies. […]
Based on the previous researches performed by the inventors, the synthesized derivatives of Rk1 having steroid backbone and having the ability of inhibiting apoptosis of vascular endothelial cells and inhibiting permeability were screened. First, the ability of inhibiting apoptosis of vascular endothelial cells was measured. […] The next day, the cells were transferred to serum-free 11199 medium containing 5 μg/mL (FIG. 1a) or 10 μg/mL (FIG. 1b) of the compound synthesized in Synthesis Example 1-4, Cell viability was determined by MTT assay (Mosmann T, Journal of ImmunalogiCal Methods 65(1-2): 55-63 (1983); Cory A H, et al., Cancer Communications 3(7): 207-12 (1991)) 24 hours and 48 hours later.

HRECs [5] = assay: VEGF-induced actin stress fibers in HRECs, rhodamine phalloidin staining; type: cell-based, human; conditions: 10 μg/mL 1 hour, then 20 ng/mL VEGF 1 hour
Method: Confluent HRECs were treated with 10 μg/mL Sac0601 or Sac0504 for 1 hour and then with 20 ng/mL VEGF for 1 hour. Subsequently, the cells were fixed at room temperature for 20 minutes with 4% paraformaldehyde and washed 3 times with PBS (pH 7.4). Then, the cells were permeabilized with 0.1% Triton X-100/PBS and reacted with 0.1 mg/mL rhodamine phalloidin (Molecular Probes) for 1 hour. Then, the cells were observed under a fluorescence microscope (Olympus). […] The analysis of actin cytoskeleton was conducted also for the compounds synthesized in Synthesis Example 5. Both Sac0904 and Sac0902 exerted effects in a concentration-dependent manner on the actin cytoskeleton which is closely related with vascular permeability (FIG. 7c).

Compound | retinal vascular permeability induced in the DM [1] | DNA fragmentation (HRECs [2]) | change in actin structure and TJ stability at the cell-cell contacts induced by VEGF (HRECs [3]) | ability of inhibiting apoptosis (cell viability by MTT assay) [4] | formation of actin stress fibers induced by VEGF (HRECs [5]) | formation of cortical actin ring structures (HRECs [5])
CC(C)CCC[C@@H](C)[C@H]1CC[C@H]2[C@@H]3CC=C4C[C@@H](OC5CCCCO5)CC[C@]4(C)[C@H]3CC[C@]12C (stereo partly drawn) [Sac0504] | partially inhibits; also recorded: only limitedly | inhibit DNA fragmentation | can be restored | comparable to that of Rk1 | inhibited the formation of actin stress fibers induced by VEGF | increased the formation of cortical actin ring structures
CC(=O)OCC1OC(OC2CCC3(C)C(=CCC4C3CCC3(C)C(C(C)CCCC(C)C)CCC43)C2)C=CC1OC(C)=O (stereo not drawn) [Sac0601] | completely inhibits; also recorded: very effectively | inhibit DNA fragmentation | can be restored | comparable to that of Rk1 | inhibited the formation of actin stress fibers induced by VEGF | increased the formation of cortical actin ring structures
